pKi: −log10 of the molar value. *1 amine or outer side, *2 acyl side, *3 side chain or, on linkers, in order; H or OH if unused. Where a SMILES comes first, the peptide text is derived from it. Bridges are numbered along the chain shown (N, C = ends). Roman numbers before positions name the chains, in order. [ ]: non-standard residue; d: D form. The star is where a group is joined. TATA = O=C(CC[*:1])N1CN(C(=O)CC[*:2])CN(C(=O)CC[*:3])C1; Dolaproine = CO[C@@H]([C@@H]1CCCN1)[C@@H](C)C(=O)O; Dil = CC[C@H](C)[C@H](NC)[C@@H](CC(=O)O)OC; 1Nal = N[C@@H](Cc1cccc2ccccc12)C(=O)O; X3 = O=C(CCCC(=O)[*:2])NCCC(=O)[*:1]; PABC = O=C(OCc1ccc(N[*:1])cc1)[*:2]; X4 = C[C@@H](N*)[C@@H](O)c1ccccc1; Hyp = O=C(O)[C@@H]1C[C@@H](O)CN1; hArg = N=C(N)NCCCC[C@H](N)C(=O)O; Cit = NC(=O)NCCC[C@H](N)C(=O)O; NMeV = CN[C@H](C(=O)O)C(C)C; Sar = CNCC(=O)O
How the values were obtained:
NCI-H292 xenograft = assay: Example 1: in vivo efficacy in NCI-H292 xenograft (NSCLC model) in BALB/c nude mice; parameters: species or system Mus Musculus; details: 5 mg/kg
Description: The major endpoint was to see if the tumor growth could be delayed or mice could be cured. Tumor volume was measured three times weekly in two dimensions using a caliper, and the volume was expressed in mm^3 using the formula: V=0.5 a×b^2 where a and b are the long and short diameters of the tumor, respectively. The tumor size was then used for calculations of T/C value. The T/C value (in percent) is an indication of antitumor effectiveness; T and C are the mean volumes of the treated and control groups, respectively, on a given day. TGI was calculated for each group using the formula: TGI (%)=[1−(Ti−T0)/(Vi−V0)]×100; Ti is the average tumor volume of a treatment group on a given day, T0 is the average tumor volume of the treatment group on the day of treatment start, Vi is the average tumor volume of the vehicle control group on the same day with Ti, and V0 is the average tumor volume of the vehicle group on the day of treatment start.
A one-way ANOVA was performed to compare tumor volume among groups, and when a significant F-statistics (a ratio of treatment variance to the error variance) was obtained, comparisons between groups were carried out with Games-Howell test. All data were analyzed using GraphPad Prism 5.0. P<0.05 was considered to be statistically significant.
The NCI-H292 tumor cells will be maintained in medium supplemented with 10% heat inactivated fetal bovine serum at 37° C. in an atmosphere of 5% CO2 in air. The tumor cells will be routinely subcultured twice weekly. The cells growing in an exponential growth phase will be harvested and counted for tumor inoculation.
Each mouse will be inoculated subcutaneously at the right flank with NCI-H292 tumor cells (10×10^6) in 0.2 ml of PBS for tumor development. The animals will be randomized and treatment will be started when the average tumor volume reaches approximately 158-406 mm^3.

human Nectin-4 = biological target: T1, human Nectin-4 (Homo sapiens, UniProt Q96NY8); assay: Nectin-4 competition binding assay (fluorescence polarisation); details: competition with fluorescent peptide SEQ ID NO: 217; read-out: Ki
T1 sequence (Q96NY8 32-510): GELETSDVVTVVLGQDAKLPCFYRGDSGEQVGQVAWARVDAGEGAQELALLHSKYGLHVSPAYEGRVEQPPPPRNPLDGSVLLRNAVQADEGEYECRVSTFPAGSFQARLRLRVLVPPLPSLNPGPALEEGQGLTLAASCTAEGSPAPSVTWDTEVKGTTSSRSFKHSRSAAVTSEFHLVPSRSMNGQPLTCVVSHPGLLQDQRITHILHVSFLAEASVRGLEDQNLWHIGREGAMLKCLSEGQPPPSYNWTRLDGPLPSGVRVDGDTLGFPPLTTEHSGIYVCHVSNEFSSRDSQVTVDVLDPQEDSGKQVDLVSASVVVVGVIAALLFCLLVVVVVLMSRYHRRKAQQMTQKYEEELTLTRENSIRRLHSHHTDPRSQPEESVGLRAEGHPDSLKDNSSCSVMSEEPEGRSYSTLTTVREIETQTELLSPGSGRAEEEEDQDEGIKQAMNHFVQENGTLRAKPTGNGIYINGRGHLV
In short: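 Serially diluted (1 in 2) peptides, max 5% DMSO, were mixed with human Nectin-4 and a fluorescent tracer peptide; FP read as in the direct binding assay. Ki from fitting mP values to a cubic competition equation using tracer concentration, tracer Kd and Nectin-4 concentration.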

Question: How did the “bodyweight (in words)” value (NCI-H292 xenograft) turn out when `CC[C@H](C)[C@@H]([C@@H](CC(=O)N1CCC[C@H]1[C@H](OC)[C@@H](C)C(=O)N[C@H](C)[C@@H](O)c1ccccc1)OC)N(C)C(=O)[C@@H](NC(=O)[C@H](C(C)C)N(C)C(=O)OCc1ccc(NC(=O)[C@H](CCCNC(N)=O)NC(=O)[C@@H](NC(=O)CCCC(=O)NCCC(=O)N(C)CC(=O)N(C)CC(=O)N(C)CC(=O)N(C)CC(=O)N(C)CC(=O)N[C@H]2CSCCC(=O)N3CN4CN(C3)C(=O)CCSC[C@H](NC(=O)[C@@H](CC(=O)O)NC(=O)[C@H](Cc3ccccc3)NC(=O)[C@@H]3CCCN3C2=O)C(=O)N[C@@H](CCSC)C(=O)N[C@@H](CCCCNC(=N)N)C(=O)N[C@@H](CC(N)=O)C(=O)N[C@@H](Cc2c[nH]c3ccccc23)C(=O)N[C@@H](CO)C(=O)N[C@@H](Cc2c[nH]c3ccccc23)C(=O)N2CCC[C@H]2C(=O)N[C@@H]([C@@H](C)CC)C(=O)N[C@@H](Cc2c[nH]c3ccccc23)C(=O)N[C@H](C(N)=O)CSCCC4=O)C(C)C)cc1)C(C)C` [BCY7683, MMAE-PABC-Cit-Val-Glutaryl-BCY7556] (I: [Sar][Sar][Sar][Sar][Sar]CPF[dD]CM[hArg]NWSWPIWC-NH2 / II: V[Cit][PABC][NMeV]V[Dil][Dolaproine]-X4; linker I:6-I:10-I:20 via TATA; linker I:N-II:N via X3) was run?
Answer: Its value is “severe bodyweight loss”.

Question: `CC[C@H](C)[C@@H]1NC(=O)[C@H](CCCNC(=N)N)NC(=O)[C@H](CC(N)=O)NC(=O)[C@@H]2CSCCC(=O)N3CN(CN(C3)C(=O)CCSC[C@H](NC(=O)[C@H](Cc3c[nH]c4ccccc34)NC(=O)[C@H](CCCCN)NC(=O)[C@H](CCC(N)=O)NC(C)=O)C(=O)N[C@@H](C)C(=O)N3CCC[C@H]3C(=O)N[C@@H](CC(C)C)C(=O)N[C@@H](CO)C(=O)N[C@@H](CC(=O)O)C(=O)N[C@@H](Cc3ccc(O)cc3)C(=O)N[C@@H](Cc3cccc4ccccc34)C(=O)N2)C(=O)CCSC[C@@H](C(N)=O)NC1=O` [BCY7998, Ac-QKW-(SEQ ID NO: 153)] (Ac-QKWCAPLSDY[1Nal]CNRIC-NH2; linker 4-12-16 via TATA; C-terminus assumed) was tested. Which pKi (human Nectin-4) did it give?
Answer: Its pKi is 6.87.

Question: `CC[C@H](C)[C@@H]1NC(=O)[C@@H]2CCCN2C(=O)[C@H]([C@@H](C)O)NC(=O)[C@H](CO)NC(=O)[C@H](Cc2c[nH]c3ccccc23)NC(=O)[C@H](CC(N)=O)NC(=O)[C@H](CCCCNC(=N)N)NC(=O)[C@H](CCSC)NC(=O)[C@@H]2CSCCC(=O)N3CN(CN(C3)C(=O)CCSC[C@H](NC(=O)[C@H](CC(=O)O)NC(=O)[C@H](CC(=O)O)NC(=O)[C@H](CC(=O)O)NC(C)=O)C(=O)N3CCC[C@H]3C(=O)N[C@@H](Cc3ccccc3)C(=O)N[C@H](CC(=O)O)C(=O)N2)C(=O)CCSC[C@@H](C(N)=O)NC(=O)[C@H](Cc2c[nH]c3ccccc23)NC1=O` [BCY8028, Ac-DDD-(SEQ ID NO: 115)] was tested. Which pKi (human Nectin-4) did it give?
Answer: Its pKi is 7.21.

Question: `CC[C@H](C)[C@@H]1NC(=O)[C@@H]2CCCN2C(=O)[C@H]([C@@H](C)O)NC(=O)[C@H](CO)NC(=O)[C@H](Cc2c[nH]c3ccccc23)NC(=O)[C@H](CC(N)=O)NC(=O)[C@H](CCCCNC(=N)N)NC(=O)[C@H](CC(C)C)NC(=O)[C@@H]2CSCCC(=O)N3CN(CN(C3)C(=O)CCSC[C@H](NC(C)=O)C(=O)N3CCC[C@H]3C(=O)N[C@@H](Cc3ccccc3)C(=O)N[C@H](CC(=O)O)C(=O)N2)C(=O)CCSC[C@@H](C(N)=O)NC(=O)[C@H](Cc2c[nH]c3ccccc23)NC1=O` [BCY8039, Ac-(SEQ ID NO: 161)] (Ac-CPF[dD]CL[hArg]NWSTPIWC-NH2; linker 1-5-15 via TATA; C-terminus assumed) was tested. Which pKi (human Nectin-4) did it give?
Answer: The pKi was 7.67.

Question: `CC[C@H](C)[C@@H]1NC(=O)[C@H](CCCNC(=N)N)NC(=O)[C@H](CC(N)=O)NC(=O)[C@@H]2CSCCC(=O)N3CN(CN(C3)C(=O)CCSC[C@H](NC(C)=O)C(=O)N[C@@H](C)C(=O)N3CCC[C@H]3C(=O)N[C@@H](CC(C)C)C(=O)N[C@@H](CO)C(=O)N[C@@H](CC(=O)O)C(=O)N[C@@H](Cc3ccc(O)cc3)C(=O)N[C@@H](Cc3c[nH]c4ccccc34)C(=O)N2)C(=O)CCSC[C@@H](C(N)=O)NC1=O` [BCY8044, Ac-(SEQ ID NO: 34)] (Ac-CAPLSDYWCNRIC-NH2; linker 1-9-13 via TATA; C-terminus assumed) was tested. Which pKi (human Nectin-4) did it give?
Answer: Its pKi is 6.77.

Question: With `CC[C@H](C)[C@@H]1NC(=O)[C@@H]2CCCN2C(=O)[C@H]([C@@H](C)O)NC(=O)[C@H](CO)NC(=O)[C@H](Cc2c[nH]c3ccccc23)NC(=O)[C@H](CC(N)=O)N(C)C(=O)[C@H](CCCCNC(=N)N)NC(=O)[C@H](CCSC)NC(=O)[C@@H]2CSCCC(=O)N3CN(CN(C3)C(=O)CCSC[C@H](NC(C)=O)C(=O)N3CCC[C@H]3C(=O)N[C@@H](Cc3ccccc3)C(=O)N[C@H](CC(=O)O)C(=O)N2)C(=O)CCSC[C@@H](C(N)=O)NC(=O)[C@H](Cc2c[nH]c3ccccc23)NC1=O` [BCY8154, Ac-(SEQ ID NO: 174)] as the molecule, how does the pKi (human Nectin-4) read?
Answer: Its pKi is 8.10.

Question: How did the pKi (human Nectin-4) turn out when `CC[C@H](C)[C@H]1C(=O)N[C@@H](Cc2c[nH]c3ccccc23)C(=O)N[C@H](C(N)=O)CSCCC(=O)N2CN3CN(C2)C(=O)CCSC[C@H](NC(C)=O)C(=O)N2CCC[C@H]2C(=O)N[C@@H](Cc2ccccc2)C(=O)N[C@H](CC(=O)O)C(=O)N[C@@H](CSCCC3=O)C(=O)N[C@@H](CCSC)C(=O)N[C@@H](CCCCNC(=N)N)C(=O)N[C@@H](CC(N)=O)C(=O)N[C@@H](Cc2c[nH]c3ccccc23)C(=O)N[C@@H](CO)C(=O)N[C@@H]([C@@H](C)O)C(=O)N2CCC[C@H]2C(=O)N1C` [BCY8158, Ac-(SEQ ID NO: 176)] was run?
Answer: Its pKi is 6.75.

Question: How did the pKi (human Nectin-4) turn out when `CSCC[C@@H]1NC(=O)[C@@H]2CSCCC(=O)N3CN(CN(C3)C(=O)CCSC[C@H](NC(C)=O)C(=O)N3CCC[C@H]3C(=O)N[C@@H](Cc3cccc4ccccc34)C(=O)N[C@H](CC(=O)O)C(=O)N2)C(=O)CCSC[C@@H](C(N)=O)NC(=O)[C@H](Cc2c[nH]c3ccccc23)NC(=O)[C@@H]2C[C@@H](O)CN2C(=O)[C@@H]2CCCN2C(=O)[C@H]([C@@H](C)O)NC(=O)[C@H](CO)NC(=O)[C@H](Cc2c[nH]c3ccccc23)NC(=O)[C@H](CC(=O)O)NC(=O)[C@H](CCNC(=N)N)NC1=O` [BCY8181, Ac-(SEQ ID NO: 186)] was run?
Answer: The pKi was 8.46.

Question: How did the pKi (human Nectin-4) turn out when `CSCC[C@@H]1NC(=O)[C@@H]2CSCCC(=O)N3CN(CN(C3)C(=O)CCSC[C@H](NC(C)=O)C(=O)N3CCC[C@H]3C(=O)N[C@@H](Cc3cccc4ccccc34)C(=O)N[C@H](CCCNC(=N)N)C(=O)N2)C(=O)CCSC[C@@H](C(N)=O)NC(=O)[C@H](Cc2c[nH]c3ccccc23)NC(=O)[C@@H]2C[C@@H](O)CN2C(=O)[C@@H]2CCCN2C(=O)[C@H]([C@@H](C)O)NC(=O)[C@H](CCO)NC(=O)[C@H](Cc2c[nH]c3ccccc23)NC(=O)[C@H](CC(=O)O)NC(=O)[C@H](CCCCNC(=N)N)NC1=O` [BCY8188, Ac-(SEQ ID NO: 193)] was run?
Answer: The pKi was 7.70.

Question: With `CSCC[C@@H]1NC(=O)[C@@H]2CSCCC(=O)N3CN(CN(C3)C(=O)CCSC[C@H](NC(C)=O)C(=O)N3CCC[C@H]3C(=O)N[C@@H](Cc3cccc4ccccc34)C(=O)N[C@H](CCCNC(=N)N)C(=O)N2)C(=O)CCSC[C@@H](C(N)=O)NC(=O)[C@H](Cc2c[nH]c3ccccc23)NC(=O)[C@@H]2C[C@@H](O)CN2C(=O)[C@@H]2CCCN2C(=O)[C@H](CO)NC(=O)[C@H](CO)NC(=O)[C@H](Cc2c[nH]c3ccccc23)NC(=O)[C@H](CC(=O)O)NC(=O)[C@H](CCCCNC(=N)N)NC1=O` [BCY8191, Ac-(SEQ ID NO: 195)] (Ac-CP[1Nal][dR]CM[hArg]DWSSP[Hyp]WC-NH2; linker 1-5-15 via TATA; C-terminus assumed) as the molecule, how does the pKi (human Nectin-4) read?
Answer: Its pKi is 8.35.

Source: patent US12459974B2, “Bicyclic peptide ligands specific for Nectin-4” (priority 2018, dated 2025)
